Experimental data: patent publication US12178817B2, “Compounds for enhancing PPARγ expression and nuclear translocation and therapeutic use thereof” (REALINN LIFE SCIENCE LIMITED, priority 2015, dated 2024)

What was measured:
[1] = tested on: PPARγ; assay: Expression of PPARγ in HEK293 cells treated with LPS and dipyridamole (Western blot of nuclear proteins); format: cell-based, human
Protocol: The cell line used in the assay was human embryonic kidney cells, HEK293. The cells were collected at 0 h, 3 h and 12 h after treatment. The collected cells were washed with 150 μL Buffer A (10 mM Hepes pH=7.9, 1.5 mM MgCl2, 10 mM KCl, 1.0 mM DTT, 0.1% Triton-X 100), and centrifuged at 3000 g for 10 minutes at 4° C. Supernatant containing cytosolic proteins was collected, and the pellets were re-suspended with 50 μL Buffer B (20 mM Hepes pH=7.9, 1.5 mM MgCl2, 0.42M NaCl, 1.0 mM DTT, 1.0M PMSF, 0.2 mM EDTA) and incubated on ice for 30 minutes followed by centrifuging at 12000 g for 10 minutes at 4° C. Supernatant containing nucleic proteins was then collected, and the expression of P65 protein, which is indicative of the activation of PPARγ, was analyzed using Western blotting. The method is as follows: Protein concentration was measured using Bradford assay. 6× sample buffer (0.8 mM Tris-HCl, 10 mM EDTA, 10% SDS, 60% glycerol, 0.6 M β-mercaptoethano, 0.06% bromophenol blue, pH 6.8) was added into 50 μg of nuclear proteins and an equal volume of lysis buffer was added into the samples. After being heated at 95° C. for 10 minutes to denature the proteins, the samples were immediately cooled on ice. […] Photos of the images were taken using automated chemiluminescence and fluorescence imaging system (UVP Biospectrum). […]

[2] = tested on: mice with LPS-induced sepsis; assay: Survival rate analysis in mice with LPS-induced sepsis; format: in vivo; conditions: high dose
Protocol: Male C57Bl/6J mice, 8-12 weeks of age, were used in this study. They were reared in an air-conditioned environment with 6 am to 18 pm light cycle and fed standard rodent chow ad libitum. […] First, mice were injected intraperitoneally with LPS (16 mg/kg) and followed for 72 hours to observe the survival rate.

[3] = Non-invasive blood pressure measurement in mice after intravenous administration; conditions: high dose

With `OCCN(CCO)c1nc(N2CCCCC2)c2nc(N(CCO)CCO)nc(N3CCCCC3)c2n1` [dipyridamole] the “PPARγ expression and nuclear translocation” value [1] was “promote PPARγ expression and nuclear translocation”, the “effect on physiological conditions and survival rate” value [2] was “influences physiological conditions and survival rate” and the “effect on blood pressure” value [3] was “leads to changes in blood pressure”.
